Test [1] has as its system Mycobacterium tuberculosis H37Ra. The format is cell-based. The conditions noted are these: 10 μM; after 24 hours.
In test [2] the test system is p53. Nature of the test: p53 protein expression by western blotting in macrophages infected with M. tuberculosis. In kind it is cell-based. The conditions noted are these: rat BMDMs infected with M. tuberculosis H37Ra (one bacterium per cell); 10 μM; compared to Nutlin-3α; β-actin inner control. The text has this: It is confirmed whether p53 is expressed, when a cell is infected with M. tuberculosis, by subjecting the cell to the compound (K279-1558). Also, in order to analyze the role of p53 expression, the effect of p53 expression is confirmed from macrophages infected with M. tuberculosis. The cells were infected with avirulent M. tuberculosis (Mycobacterium tuberculosis H37Ra) in a ratio of one bacterium per cell by using bone marrow-derived macrophages (BMDMs), which is a rat-derived macrophage, and then the cells were subjected to Nutlin-3α and the compound (K279-1558) in a concentration of 10 μM. Thereafter, the number of M. tuberculosis surviving in the cells was measured.
On the technique in general: In western blotting, separated proteins are transferred to a membrane and probed.

Entries after “also recorded” stand apart in the source; their conditions may differ.

Take `CCC(SC1=Nc2ccccc2C2=NC(CC(=O)NCCc3ccccc3)C(=O)N12)C(=O)NCc1ccc(C)cc1` (stereo not drawn) [K279-1558]: in test [1], the “number of M. tuberculosis surviving in macrophages” value is on record as “dropped sharply; also recorded: decreased sharply”. The “p53 activity / degree of p53 protein expression (western blotting)” value in test [2] is on record as “remarkably higher; also recorded: increases remarkably”. Regarding `COc1ccc(C2=N[C@@H](c3ccc(Cl)cc3)[C@@H](c3ccc(Cl)cc3)N2C(=O)N2CCNC(=O)C2)c(OC(C)C)c1` [Nutlin-3α, reference compound], the “number of M. tuberculosis surviving in macrophages” value in test [1] is “decreased sharply”.

The values are drawn from patent US10806736B2 (priority 2018, dated 2020).
